According to US7588892B2, “Reagent sets and gene signatures for renal tubule injury” (Entelos, Inc., priority 2004, dated 2009):
Like-named read-outs stand apart in the source and are kept apart here.

Key:
[1] = tested on: renal tubules; conditions: rats, daily dose, route and vehicle of Table 2, day 5/7; absence of nephrotoxicity asserted from PDR and published literature; no histological injury on day 5/7; cited from earlier work
[2] = tested on: renal tubules; assay: 28-day repeat dose study of known nephrotoxicants, kidney histopathology on day 5 and day 28; format: in vivo, rat
Protocol: 28-day repeat dose studies were conducted on known nephrotoxicants. Doses were chosen that would not cause histological or clinical evidence of renal tubular injury after 5 days of dosing, but would cause histological evidence of tubular injury after 28 days of dosing. Animals were assigned to groups such that mean body weights were within 10% of the mean vehicle control group. Test compounds were administered either orally (10 ml of corn oil/kg body weight) or by intra-peritoneal injection (5 ml of saline/kg body weight). Animals were dosed once daily starting on day 0, and necropsied 24 hrs after the last dose following an overnight fast on day 5 (n=5) and day 28 (n=10). An equivalent number of time- and vehicle-matched control rats were treated concurrently.
To derive a signature predictive of renal tubular injury, it is necessary to first define both nephrotoxic and non-nephrotoxic treatments from short-term studies devoid of tissue injury that can be used to model the early transcriptional effects that will be predictive of late-onset toxicity.
Doses were chosen that would not cause histological or clinical evidence of renal tubular injury after 5 days of dosing, but would cause histological evidence of tubular injury after 28 days of dosing.
Male Sprague-Dawley (Crl:CD®(SD)(IGS)BR) rats (Charles River Laboratories, Portage, Mich.), weight matched, 7 to 8 weeks of age, were housed individually in hanging, stainless steel, wire-bottom cages in a temperature (66-77° F.), light (12-hour dark/light cycle) and humidity (30-70%) controlled room. […] Housing and treatment of the animals were in accordance with regulations outlined in the USDA Animal Welfare Act (9 CFR Parts 1, 2 and 3).
All animals were monitored daily for clinical observations approximately 1 hr after dosing. […] Paired organs were weighed together. Body weights were recorded pre-test and daily thereafter for reference database (i.e., DrugMatrix™) studies, and on days 0, 3, 5, 7, 14 and 28 for the sub-chronic studies. Terminal body weights were measured at necropsy and used to calculate relative organ weights and percent body weight gain relative to day 0.
The right kidney was preserved in 10% buffered formalin for tissue fixation and subsequently embedded in paraffin, sectioned and stained with hematoxylin and eosin. Sections (5 μm thick) were examined under light microscope by Board Certified Pathologists for histopathological lesions. The left kidney was snap frozen in liquid nitrogen for subsequent RNA extraction.

[3] = day 28, kidney histopathology, n=10
[4] = male Sprague-Dawley rats, daily dose, route and vehicle of Table 2, late-onset renal tubular injury empirically confirmed after 28 days of dosing, expression profile day 5
[5] = after 4 weeks of dosing, kidney histopathology
[6] = day 5, kidney histopathology, n=5

SMILES	Class (nephrotoxic / non-nephrotoxic training label) [1]	further results
COc1ccc2cc(CC(=O)O)ccc2c1	Non-nephrotoxic	
CC(C)CN(C[C@@H](O)[C@H](Cc1ccccc1)NC(=O)O[C@H]1CCOC1)S(=O)(=O)c1ccc(N)cc1	Non-nephrotoxic	
CCOc1nc2cccc(C(=O)O)c2n1Cc1ccc(-c2ccccc2-c2nnn[nH]2)cc1	Non-nephrotoxic	
CCOC(=O)[C@H](CCc1ccccc1)N[C@@H](C)C(=O)N1[C@H](C(=O)O)C[C@@H]2CCC[C@@H]21	Non-nephrotoxic	
CCCCCCCCCc1ccc(O)cc1 [4-NONYLPHENOL]		evidence of tubular injury ([2]; day 28, kidney histopathology): clear evidence of tubular injury; incidence of interstitial inflammation [2, 3]: 6 rats; proteinaceous casts, tubular cysts and mineralization, animals affected [2, 3]: one; Class (nephrotoxic / non-nephrotoxic training label) ([2]; rat, in vivo): Nephrotoxic
C[C@H]1O[C@H](O[C@H]2[C@H](O)[C@@H](O)[C@@H](O[C@H]3[C@H](O)[C@@H](O)C(O)O[C@@H]3CO)O[C@@H]2CO)[C@H](O)[C@@H](O)[C@@H]1N[C@H]1C=C(CO)[C@@H](O)[C@H](O)[C@H]1O (some centres unmarked) [ACARBOSE]	Non-nephrotoxic	
NCC[C@H](O)C(=O)N[C@@H]1C[C@H](N)[C@@H](O[C@H]2O[C@H](CN)[C@@H](O)[C@H](O)[C@H]2O)[C@H](O)[C@H]1O[C@H]1O[C@H](CO)[C@@H](O)[C@H](N)[C@H]1O [AMIKACIN]		Class (nephrotoxic / non-nephrotoxic training label) [2, 4]: Nephrotoxic
CC(=O)Oc1ccccc1C(=O)O [ASPIRIN]	Non-nephrotoxic	
Cn1cnc([N+](=O)[O-])c1Sc1ncnc2nc[nH]c12 [AZATHIOPRINE]	Non-nephrotoxic	
CNCCc1ccccn1 [BETAHISTINE]	Non-nephrotoxic	
CC(C)(c1ccc(O)cc1)c1ccc(O)cc1 [BISPHENOL A]	Non-nephrotoxic	
Oc1c(Cl)cc(Cl)cc1Sc1cc(Cl)cc(Cl)c1O [BITHIONOL]	Non-nephrotoxic	
[Cl][Cd][Cl] [CADMIUM CHLORIDE]		Class (nephrotoxic / non-nephrotoxic training label) [2, 4]: Nephrotoxic
C[C@H](CS)C(=O)N1CCC[C@H]1C(=O)O [CAPTOPRIL]	Non-nephrotoxic	
N.N.O=C([O-])C1(C(=O)[O-])CCC1.[Pt+2] [CARBOPLATIN]		incidence of karyomegaly [2, 5]: high incidence; incidence of karyomegaly [2, 6]: 5 rats; Class (nephrotoxic / non-nephrotoxic training label) [2, 4]: Nephrotoxic
Cc1ccc(-c2cc(C(F)(F)F)nn2-c2ccc(S(N)(=O)=O)cc2)cc1 [CELECOXIB]	Non-nephrotoxic	
N.N.[Cl][Pt][Cl] [CISPLATIN]		incidence of karyomegaly [2, 5]: high incidence; incidence of karyomegaly [2, 6]: 3 rats
CCOC(=O)C(C)(C)Oc1ccc(Cl)cc1 [CLOFIBRATE]	Non-nephrotoxic	
[Cl-].[Cl-].[Co+2] [COBALT (II) CHLORIDE]		incidence of karyomegaly [2, 5]: high incidence; Class (nephrotoxic / non-nephrotoxic training label) [2, 4]: Nephrotoxic
COc1cccc2c1C(=O)c1c(O)c3c(c(O)c1C2=O)C[C@@](O)(C(C)=O)C[C@@H]3O[C@H]1C[C@H](N)[C@H](O)[C@H](C)O1 [DAUNORUBICIN]		Class (nephrotoxic / non-nephrotoxic training label) [2, 4]: Nephrotoxic
COc1cccc2c1C(=O)c1c(O)c3c(c(O)c1C2=O)C[C@@](O)(C(=O)CO)C[C@@H]3O[C@H]1C[C@H](N)[C@H](O)[C@H](C)O1 [DOXORUBICIN]		Class (nephrotoxic / non-nephrotoxic training label) [2, 4]: Nephrotoxic
CCO [ETHANOL]	Non-nephrotoxic	
CC12CCC(CC1)C(C)(C)O2 [EUCALYPTOL]	Non-nephrotoxic	
CC(C)OC(=O)C(C)(C)Oc1ccc(C(=O)c2ccc(Cl)cc2)cc1 [FENOFIBRATE]	Non-nephrotoxic	

SMILES	Class (nephrotoxic / non-nephrotoxic training label) [1]	further results
CC(C)n1c(/C=C/C(O)CC(O)CC(=O)O)c(-c2ccc(F)cc2)c2ccccc21 (centres unmarked) [FLUVASTATIN]	Non-nephrotoxic	
CNC[C@H](O)[C@@H](O)[C@H](O)[C@H](O)CO.CNC[C@H](O)[C@@H](O)[C@H](O)[C@H](O)CO.O=C([O-])CN(CCN(CC(=O)[O-])CC(=O)O)CCN(CC(=O)[O-])CC(=O)O.[Gd+3] [GADOPENTETATE DIMEGLUMINE]	Non-nephrotoxic	
Cc1ccc(C)c(OCCCC(C)(C)C(=O)O)c1 [GEMFIBROZIL]	Non-nephrotoxic	
Cc1ccc(S(=O)(=O)NC(=O)NN2CC3CCCC3C2)cc1 (centres unmarked) [GLICLAZIDE]	Non-nephrotoxic	
NCC(=O)O [GLYCINE]	Non-nephrotoxic	
CC(=O)[C@]1(O)Cc2c(O)c3c(c(O)c2[C@@H](O[C@H]2C[C@H](N)[C@H](O)[C@H](C)O2)C1)C(=O)c1ccccc1C3=O [IDARUBICIN]		Class (nephrotoxic / non-nephrotoxic training label) [2, 4]: Nephrotoxic
CC(=O)[O-].CC(=O)[O-].[Pb+2] [LEAD (II) ACETATE]		incidence of karyomegaly [2, 5]: high incidence; mild tubular dilation and proteinaceous casts, animals affected ([2]; day 5, kidney histopathology): one; Class (nephrotoxic / non-nephrotoxic training label) [2, 4]: Nephrotoxic
Cc1oncc1C(=O)Nc1ccc(C(F)(F)F)cc1 [LEFLUNOMIDE]	Non-nephrotoxic	
CCC[C@@H]1C[C@@H](C(=O)N[C@@H]([C@H]2O[C@H](SC)[C@H](O)[C@@H](O)[C@H]2O)[C@@H](C)O)N(C)C1 [LINCOMYCIN]	Non-nephrotoxic	
CC[C@H](C)C(=O)O[C@H]1C[C@@H](C)C=C2C=C[C@H](C)[C@H](CC[C@@H]3C[C@@H](O)CC(=O)O3)[C@H]21 [LOVASTATIN]	Non-nephrotoxic	
CN(C)C=O [N,N-DIMETHYLFORMAMIDE]	Non-nephrotoxic	
CCN(CC)N=O [N-NITROSODIETHYLAMINE]	Non-nephrotoxic	
CCN[C@@H]1C[C@H](N)[C@@H](O[C@H]2OC(CN)=CC[C@H]2N)[C@H](O)[C@H]1O[C@H]1OC[C@](C)(O)[C@H](NC)[C@H]1O [NETILMICIN]		Class (nephrotoxic / non-nephrotoxic training label) [2, 4]: Nephrotoxic
CO[C@H]1C[C@@H]2CC[C@@H](C)[C@@](O)(O2)C(=O)C(=O)N2CCCC[C@H]2C(=O)O[C@H]([C@H](C)C[C@@H]2CC[C@@H](O)[C@H](OC)C2)CC(=O)[C@H](C)/C=C(\C)[C@@H](O)[C@@H](OC)C(=O)[C@H](C)C[C@H](C)/C=C/C=C/C=C/1C [RAPAMYCIN]	Non-nephrotoxic	
CO[C@H]1/C=C/O[C@@]2(C)Oc3c(C)c(O)c4c(c3C2=O)C2=NC3(CCN(CC(C)C)CC3)NC2=C(NC(=O)/C(C)=C\C=C\[C@H](C)[C@H](O)[C@@H](C)[C@@H](O)[C@@H](C)[C@H](OC(C)=O)[C@@H]1C)C4=O [RIFABUTIN]	Non-nephrotoxic	
O=C1C(CC[S+]([O-])c2ccccc2)C(=O)N(c2ccccc2)N1c1ccccc1 (centres unmarked) [SULFINPYRAZONE]	Non-nephrotoxic	
NC(=O)N1C(=O)/C(=C(\O)c2cccs2)c2cc(Cl)ccc21 [TENIDAP]	Non-nephrotoxic	
CS(=O)(=O)c1ccc([C@@H](O)[C@@H](CO)NC(=O)C(Cl)Cl)cc1 [THIAMPHENICOL]	Non-nephrotoxic	
N.N.[Cl][Pt+2][Cl] [TRANSPLATIN]	Non-nephrotoxic	
CC(C)[C@H](N)C(=O)OCCOCn1cnc2c(=O)[nH]c(N)nc21 [VALACYCLOVIR]	Non-nephrotoxic	
CCCC(CCC)C(=O)O [VALPROIC ACID]	Non-nephrotoxic	
CC(c1cc2ccccc2s1)N(O)C(N)=O (centres unmarked) [ZILEUTON]	Non-nephrotoxic	
Cc1cc(CC(=O)O)n(C)c1C(=O)c1ccc(Cl)cc1 [ZOMEPIRAC]	Non-nephrotoxic	
